This note sets out measurements from patent US20240245694A1, “Tricyclic Compounds and their Uses” (Novartis AG, priority 2022, published 2024).

pIC50: −log10 of the molar value. Where only a bound is given, the exact number is not on record here.

Test [1] addresses WRN helicase (core helicase motif aa N517-P1238) (Homo sapiens (Human), UniProt Q14191). Put plainly: WRN ATPase assay (ADP-Glo), DNA dependent ATP hydrolysis. The class given is biochemical. As to conditions: 3 hours pre-incubation, 300 micromolar ATP, FLAP26 ssDNA; geometric means of at least 2 determinations. The source says:
An ATPase assay was set up to measure the DNA dependent ATP hydrolysis activity of WRN helicase. This assay was used also to assess the inhibition properties of compounds of the invention on DNA dependent WRN ATPase activity.
The core helicase motif of the WRN protein (aa N517-P1238) was produced for this assay (protein production as described above). A 45 oligonucleotide sequence called “FLAP26” as described by Brosh et al., 2009, DOI: 10.1074/jbc.M111446200 ([…]; SEQ ID NO: 2) was purchased from IDT (Integrated DNA Technologies, Leuven, Belgium) and used as single strand DNA substrate. The ADP-Glo assay kit (Promega, Madison, WI) allowing the quantification of ADP produced in ATP hydrolysis reactions was used for setting up this assay. Time course experiments were first performed in order to determine the best enzymatic assay conditions (including buffer conditions, reaction time and concentrations of protein, ATP and DNA substrates). A typical reaction consists of 10 nM WRN protein, 0.2 nM FLAP26, and 300 micromolar ATP in the following assay buffer: 30 mM Tris pH7.5, 2 mM MgCl2, 0.02% BSA, 50 mM NaCl, 0.1% pluronic F127 prepared in DNAse free water.
To evaluate the inhibition properties of compounds of the invention, serial dilutions were prepared in DMSO (10 half log dilutions from a 10 mM DMSO solution). 50 nanoliters of each concentration was pre-incubated for 3 hours in a 384 small volume assay plate (Greiner #784075) with 2.5 microliters of a 20 nM WRN helicase protein in assay buffer with 600 micromolar ATP. Control wells were included with a “high control” (no inhibition), containing DMSO with no test compound, and “low controls” (maximal inhibition), containing buffer without protein. The reaction was started by addition of 2.5 microliters of FLAP26 at 0.4 nM and incubated for 30 minutes at room temperature. The reaction was stopped with the addition of 5 microliters of the first ADP-Glo reagent and incubated for one hour to remove the excess amount of ATP. Afterwards, 10 microliters of ATP detection reagent was added and incubated for an additional hour before reading. Luminescence output was recorded using Tecan 1000 reader, with 5 minutes delay before reading. Each concentration of compound was tested in duplicates in the assay plate.
Data analysis was carried out using an in-house developed software (Novartis Helios software application, Novartis Institutes for BioMedical Research, unpublished) using the methods described by Formenko et al., 2006, DOI: 10.1016/j.cmpb.2006.01.008. Following normalization of activity values for the wells to % inhibition (% inhibition=[(high control-sample)/(high control-low control)]×100), IC50 fitting was carried out from the duplicate determinations present on each plate according to [4]. Data analysis can also be carried out using commercially available software designed to derive IC50 values using 4-parameter fits (e.g. GraphPad Prism, XL fit). The reported IC50 values are the geometrical means of at least 2 independent replicates.

In the next test the test system is DLD1-WRN-KO cells. The test is described as follows: Proliferation assay DLD1-WRN-KO (CellTiterGlo, 96 hours), off-target effects. Format: cell-based. As to conditions: Homo sapiens. The source says:
(§1) The colon carcinoma cell lines SW48 (RRID: CVCL_1724), HCT 116 (RRID: CVCL_0291) and SNU-407 (RRID: CVCL_5058) were obtained from ATCC. The WRN-knockdown insensitive colon carcinoma cell line DLD-1 (RRID: CVCL_0248) was obtained from the Korean Cell Line Bank (KCLB), and used to generate a derivative in which the endogenous WRN gene copies were knocked out by CRISPR-mediated editing using standard CRISPR methods. The resulting cell line, DLD1-WRN-KO, was used to assess potential off-target compound effects.
(§2) SW48, SNU-407 and DLD1-WRN-KO cells were cultured in growth medium composed of RPMI-1640 (Amimed Cat #1-41F22-1), 2 mM L-Glutamine (Amimed Cat #5-10K50), 10 mM HEPES (Gibco Cat #15630-056), 1 mM sodium pyruvate (Amimed Cat #5-60F00-H), 1× Penicillin-Streptomycin (Amimed Cat #4-01F00-H) and 10% fetal calf serum (Amimed Cat #2-01F30-G, Lot #LB11566P). HCT 116 cells were cultured in growth medium composed of McCoys 5A (Amimed catalog #1-18F01-1), 2 mM L-Glutamine (Amimed Cat #5-10K50), 1× Penicillin-Streptomycin (Amimed Cat #4-01F00-H) and 10% fetal calf serum (Amimed Cat #2-01F30-G, Lot #LB11566P). All cells were maintained at 37° C. in a humidified 5% CO2 incubator.
(§3) Following filtration through a Steriflip-NY 20 μm filter (Millipore Cat #SCNY00020), trypsinized cells were seeded in 100 microliters growth medium at 2′000 (SW48) or 1′500 (SNU-407, DLD1-WRN-KO, HCT 116) cells/well into white, clear-bottom 96-well plates (Costar Cat #3903). Three replicate plates were prepared for each compound treatment condition. In addition, one plate (termed “day 0”) was prepared to quantify the number of viable cells at the time of compound addition. Following overnight incubation at 37° C. in a humidified 5% CO2 atmosphere, eight 3-fold serial dilutions of a given compound stock (obtained at a concentration of 10 mM in DMSO and stored at 4° C.) were dispensed directly into each of the triplicate assay plates using a HP 300D non-contact Digital Dispenser (TECAN). The final concentration of DMSO was normalized to 0.1% in all wells. 96 hours after compound addition, cellular ATP levels as a surrogate for cell viability was assessed following addition of 50 microliters CellTiterGlo (Promega Cat #G7573) reagent and luminescence quantification on a MPLEX multi-mode plate-reader (TECAN) following a 10 minute incubation at room temperature. The number of viable cells in the “day 0” plate were quantified identically on the day of compound addition.
(§4) For data analysis, the assay background signal that was determined in wells containing medium, but no cells, was subtracted from all other data points prior to further calculations. The extent of growth inhibition and potential cell kill was assessed by comparing the ATP levels (measured using CellTiterGlo, Promega) in compound-treated cells with those present at the time of compound addition. To this end, the following conditional concept was programmatically applied in HELIOS, an in-house software applying a multi-step decision tree to arrive at optimal concentration response curve fits (Gubler et al, SLAS DOI: 10.1177/2472555217752140) to calculate % growth (% G) for each compound-treated well: % G=(T−V0)/V0))*100 when T<V0, and % G=(T−V0)/(V−V0)))*100 when T>V0, where V0 is the viability level at time of compound addition, while V and T represent vehicle-control and compound-treated viability levels, respectively, at the end of the compound incubation. 100%, 0% and −100% signify absence of growth inhibition, growth stasis, and complete cell kill, respectively. Compound concentrations leading to half-maximal growth inhibition (G150) and residual cell viability at the highest tested compound concentration (Data (cmax), expressed in percent) were routinely calculated. Data analysis can also be carried out using commercially available software designed to derive IC50 values using 4-parameter fits (e.g. GraphPad Prism, XL fit). […]
A general note: In ATP-based viability assays light output follows the ATP content of the culture.

For a further test, the system named is SW48 cells. The test is described as follows: Proliferation assay SW48 (CellTiterGlo, 96 hours). The class given is cell-based. As to conditions: Homo sapiens.
Description: as §1, §2, §3, §4

The term pIC50 denotes the IC50 on a negative log10 scale, so that one unit is a factor of ten. High values mean a low IC50, low ones a high IC50. For orientation: GI50 means the concentration giving 50% growth inhibition. A low value points to greater sensitivity of the cells.

WRN helicase (core helicase motif aa N517-P1238), sequence (Q14191 517-1238): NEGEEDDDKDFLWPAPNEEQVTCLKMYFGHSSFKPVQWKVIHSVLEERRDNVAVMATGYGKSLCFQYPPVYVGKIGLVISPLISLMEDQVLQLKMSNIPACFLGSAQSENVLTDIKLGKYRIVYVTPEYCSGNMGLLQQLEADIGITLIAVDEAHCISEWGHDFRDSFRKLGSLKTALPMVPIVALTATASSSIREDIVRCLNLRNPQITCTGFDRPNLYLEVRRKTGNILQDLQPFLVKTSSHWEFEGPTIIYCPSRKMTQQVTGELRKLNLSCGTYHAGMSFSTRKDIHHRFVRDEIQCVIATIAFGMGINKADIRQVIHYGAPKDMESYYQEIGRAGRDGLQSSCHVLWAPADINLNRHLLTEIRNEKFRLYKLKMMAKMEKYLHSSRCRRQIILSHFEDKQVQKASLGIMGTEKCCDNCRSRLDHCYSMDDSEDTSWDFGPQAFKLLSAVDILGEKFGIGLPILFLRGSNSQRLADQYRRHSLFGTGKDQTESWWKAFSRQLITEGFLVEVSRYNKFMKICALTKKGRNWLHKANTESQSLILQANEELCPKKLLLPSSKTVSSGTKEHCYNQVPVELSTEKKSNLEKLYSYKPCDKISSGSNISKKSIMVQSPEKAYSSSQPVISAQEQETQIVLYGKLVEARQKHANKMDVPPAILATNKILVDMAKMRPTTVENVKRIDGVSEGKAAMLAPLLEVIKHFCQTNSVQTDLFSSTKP

`C[C@@H]1C[C@H](C(=O)Nc2ccc(C(F)(F)F)cc2Cl)n2c1c(N1CCN(C(=O)c3ncc4c(c3O)OCC4)CC1)c(=O)n1nc(C3=CCOCC3)nc21` [Example 5A, (7R,9R)—N-(2-chloro-4-(trifluoromethyl)phenyl)-2-(3,6-dihydro-2H-pyran-4-yl)-6-(4-(7-hydroxy-2,3-dihydrofuro[3,2-c]pyridine-6-carbonyl)piperazin-1-yl)-7-methyl-5-oxo-5,7,8,9-tetrahydropyrrolo[1,2-c][1,2,4]triazolo[1,5-a]pyrimidine-9-carboxamide] gave a pIC50 in test [1] of 7.70. The values for the concentration for 50% growth inhibition (GI50) in the test with DLD1-WRN-KO cells and with SW48 cells were greater than 10 µM and 30 nM, respectively.
Compound `C[C@H]1C[C@@H](C(=O)Nc2ccc(C(F)(F)F)cc2Cl)n2c1c(N1CCN(C(=O)c3ncc4c(c3O)OCC4)CC1)c(=O)n1nc(C3=CCOCC3)nc21` [Example 5B, (7S,9S)—N-(2-chloro-4-(trifluoromethyl)phenyl)-2-(3,6-dihydro-2H-pyran-4-yl)-6-(4-(7-hydroxy-2,3-dihydrofuro[3,2-c]pyridine-6-carbonyl)piperazin-1-yl)-7-methyl-5-oxo-5,7,8,9-tetrahydropyrrolo[1,2-c][1,2,4]triazolo[1,5-a]pyrimidine-9-carboxamide] showed a pIC50 in test [1] of 5.22. Moreover, the concentration for 50% growth inhibition (GI50) with DLD1-WRN-KO cells is greater than 10 µM; in the test with SW48 cells, 5000 nM.
The compound `C[C@@H]1C[C@H](C(=O)Nc2ccc(C(F)(F)F)cc2Cl)n2c1c(N1CCN(C(=O)c3nccc(F)c3O)CC1)c(=O)n1nc(C3=CCOCC3)nc21` [Example 6A, (7R,9R)—N-(2-chloro-4-(trifluoromethyl)phenyl)-2-(3,6-dihydro-2H-pyran-4-yl)-6-(4-(4-fluoro-3-hydroxypicolinoyl)piperazin-1-yl)-7-methyl-5-oxo-5,7,8,9-tetrahydropyrrolo[1,2-c][1,2,4]triazolo[1,5-a]pyrimidine-9-carboxamide] showed a pIC50 in test [1] of 7.70. Moreover, the GI50 is greater than 10 µM with DLD1-WRN-KO cells and 20 nM with SW48 cells.
`C[C@H]1C[C@@H](C(=O)Nc2ccc(C(F)(F)F)cc2Cl)n2c1c(N1CCN(C(=O)c3nccc(F)c3O)CC1)c(=O)n1nc(C3=CCOCC3)nc21` [Example 6B, (7S,9S)—N-(2-chloro-4-(trifluoromethyl)phenyl)-2-(3,6-dihydro-2H-pyran-4-yl)-6-(4-(4-fluoro-3-hydroxypicolinoyl)piperazin-1-yl)-7-methyl-5-oxo-5,7,8,9-tetrahydropyrrolo[1,2-c][1,2,4]triazolo[1,5-a]pyrimidine-9-carboxamide] gave a pIC50 in test [1] of 5.70. Moreover, the results for the concentration for 50% growth inhibition (GI50) with DLD1-WRN-KO cells and in the test with SW48 cells were greater than 10 µM and 3000 nM, respectively.
`C[C@@H]1C[C@H](C(=O)Nc2ccc(C(F)(F)F)cc2Cl)n2c1c(N1CCN(C(=O)c3nn(C)c(=O)[nH]3)CC1)c(=O)n1nc(C3=CCOCC3)nc21` [Example 7, (7R,9R)—N-(2-chloro-4-(trifluoromethyl)phenyl)-2-(3,6-dihydro-2H-pyran-4-yl)-7-methyl-6-(4-(1-methyl-5-oxo-4,5-dihydro-1H-1,2,4-triazole-3-carbonyl)piperazin-1-yl)-5-oxo-5,7,8,9-tetrahydropyrrolo[1,2-c][1,2,4]triazolo[1,5-a]pyrimidine-9-carboxamide]: the pIC50 in test [1] was 7.30. The values for the GI50 with DLD1-WRN-KO cells and in the test on SW48 cells were greater than 10 µM and 300 nM, respectively.
In the same order, the values of `Cc1cc(F)c(O)c(C(=O)N2CCN(c3c4n(c5nc(C6=CCOCC6)nn5c3=O)[C@@H](C(=O)Nc3ccc(C(F)(F)F)cc3Cl)C[C@H]4C)CC2)n1` [Example 8, (7R,9R)—N-(2-chloro-4-(trifluoromethyl)phenyl)-2-(3,6-dihydro-2H-pyran-4-yl)-6-(4-(4-fluoro-3-hydroxy-6-methylpicolinoyl)piperazin-1-yl)-7-methyl-5-oxo-5,7,8,9-tetrahydropyrrolo[1,2-c][1,2,4]triazolo[1,5-a]pyrimidine-9-carboxamide] are 7.70, greater than 10 µM and 20 nM.
`C[C@@H]1C[C@H](C(=O)Nc2ccc(C(F)(F)F)cc2Cl)n2c1c(N1CCN(C(=O)c3c(O)ccc4nccn34)CC1)c(=O)n1nc(C3=CCOCC3)nc21` [Example 9, (7R,9R)—N-(2-chloro-4-(trifluoromethyl)phenyl)-2-(3,6-dihydro-2H-pyran-4-yl)-6-(4-(6-hydroxyimidazo[1,2-a]pyridine-5-carbonyl)piperazin-1-yl)-7-methyl-5-oxo-5,7,8,9-tetrahydropyrrolo[1,2-c][1,2,4]triazolo[1,5-a]pyrimidine-9-carboxamide] gave a pIC50 in test [1] of 7.30. Moreover, the GI50 with DLD1-WRN-KO cells was greater than 10 µM; in the test with SW48 cells it was 60 nM.
Turning to `Cc1nccc(C(=O)N2CCN(c3c4n(c5nc(C6=CCOCC6)nn5c3=O)[C@@H](C(=O)Nc3ccc(C(F)(F)F)cc3Cl)C[C@H]4C)CC2)c1O` [Example 10, (7R,9R)—N-(2-chloro-4-(trifluoromethyl)phenyl)-2-(3,6-dihydro-2H-pyran-4-yl)-6-(4-(3-hydroxy-2-methylisonicotinoyl)piperazin-1-yl)-7-methyl-5-oxo-5,7,8,9-tetrahydropyrrolo[1,2-c][1,2,4]triazolo[1,5-a]pyrimidine-9-carboxamide], the pIC50 in test [1] was 7.05. Besides, the values for the concentration for 50% growth inhibition (GI50) with DLD1-WRN-KO cells and in the test on SW48 cells were greater than 10 µM and 200 nM, respectively.
